Patent publication US20230110128A1, “USE OF ANTIBODY DRUG CONJUGATES COMPRISING TUBULIN DISRUPTING AGENTS TO TREAT SOLID TUMOR” (Seagen Inc., priority 2018, published 2023)

Assays:
[1] = system: MCF7 cells; assay: ATP secretion from MCF7 cells; type: cell-based; details: after 48 hours of treatment
[2] = system: MCF7 breast cancer cells; assay: Western blot analysis of ER stress response in MCF7 cells; type: cell-based; details: FIG. 16A
Method: MCF7 breast cancer cells were treated with 100 nM MMAE for 16 hours and harvested RIPA buffer for western blot analysis.
MCF7 cells were treated with MMAE or an MMAE-containing ADC (SGN-LIV1A) for 16 hours and harvested in […] for western bot analysis. […] Induction of ICD is also characterized by the secretion of ATP and HMGB1. Extracellular ATP serves as a strong chemotactic signal, promoting immune cell migration to the tumor site. Upon arrival, extracellular HMGB1 signals through various pro-inflammatory receptors (TLR2, TLR4, RAGE) to activate antigen-presenting cells, thereby promoting immune activity within the tumor.

[3] = system: A2058, SK-MEL-5, SK-MEL-28 (skin) cell lines; assay: ATP secretion in skin cell lines; type: cell-based; details: A2058, SK-MEL-5, SK-MEL-28, after 17 hours
Method: (§1) Skin tumor lines A2058, SK-MEL-5 and SK-MEL-28, Calu-1 (lung), HT-1080 (fibrosarcoma), SK-MES-1 (lung), and BXPC3 (pancreas) cells were treated with MMAE, vincristine, and Paclitaxel. Supernatant was collected after 17 hours of treatment, and analyzed for ATP secretion.

[4] = system: HeLa cervical cancer cells; assay: Western blot analysis of ER stress in HeLa cells; type: cell-based; details: 1000 nM or 100 nM, 16 hours
Method: HeLa cervical cancer cells were treated with 1000 nM or 100 nM MMAE, Vincristine, or Paclitaxel for 16 hours and harvested for western blot analysis.

[5] = system: MiaPaca-CHOP-luciferase cells; assay: CHOP-driven luciferase reporter assay of severe ER stress; type: cell-based; details: after 16 hours
Method: Severe ER stress leads to upregulation of CHOP, and initiates mitochondrial apoptosis. MiaPaca2 pancreatic tumor cells were engineered to express a CHOP-driven luciferase reporter system (purchased from Signosis, Inc.) that allows for quantifiable monitoring of severe ER stress. MiaPaca-CHOP-luciferase cells were treated with MMAE, vincristine, and Paclitaxel, and assayed for luciferase expression after 16 hours.

[6] = system: PC-3 prostate tumor cells; assay: ATP secretion from PC-3 cells; type: cell-based; details: supernatant after 16 hours
Method: PC-3 prostate tumor cells were also treated with MMAE, Vincristine, or Paclitaxel. Supernatant was collected after 16 hours of treatment, and analyzed for ATP secretion. […] PC-3 cells were treated for 24 hours with an MMAE-containing ADC (SGN-LIV1A) or MMAE and harvested in RIPA buffer for western blot analysis (FIG. 3C).

[7] = system: A2058, SK-MEL-5, SK-MEL-28, Calu-1, HT-1080, SK-MES-1, BXPC3 and HPAFII cells; assay: HMGB1 release by ELISA in a panel of solid tumor cell lines; type: cell-based; details: supernatant after one night of treatment
Method: A2058, SK-MEL-5, SK-MEL-28 (skin), Calu-1, HT-1080, SK-MES-1 (lung), and BXPC3 and HPAFII (pancreas) cells were treated with an MMAE-containing ADC (e.g., anti-p97-MMAE or anti-CD71-MMAE) or Paclitaxel. Supernatant was collected after one night of treatment, and analyzed for HMGB1 release by ELISA. […] See, e.g., FIG. 70 and additional description below.

[8] = system: MiaPaca-CHOP-luciferase cells subcutaneously engrafted; assay: Tumoral CHOP luciferase signal in engrafted MiaPaca-CHOP-luciferase tumors; type: in vivo, NOD/SCID/gamma-chain deficient mice; details: intratumorally; MMAE 0.36 mg/kg, vincristine 1.0 mg/kg, Paclitaxel 10 mg/kg
Method: MiaPaca-CHOP-luciferase cells were subcutaneously engrafted into NOD/SCID/gamma-chain deficient mice. Subcutaneous tumors were treated intratumorally with MMAE (0.36 mg/kg), vincristine (1.0 mg/kg), and Paclitaxel (10 mg/kg) and tumoral luciferase signal was monitored over time.

[9] = system: BxPC-3 cells; assay: ATP secretion from BxPC-3 cells; type: cell-based; details: 17 hours
[10] = system: MiaPaca2 cells; assay: ATP secretion from MiaPaca2 cells; type: cell-based; details: supernatant after 16 hours
Method: MiaPaca2 cells were treated with MMAE, Vincristine, or Paclitaxel. Supernatant was collected after 16 hours of treatment, and analyzed for ATP secretion.

[11] = system: BxPC3 and HPAFII (pancreas) cells co-cultured with macrophages; assay: Macrophage antigen presentation after co-culture with treated pancreas tumor cells; type: cell-based; details: BxPC3 and HPAFII treated 24 hours; macrophages harvested 4 days after co-culture
Method: Macrophages were enriched from PBMCs from 2 healthy donors by adhering PBMCs to cell culture-grade plastic. Non-adherent cells were removed 24 hours later, leaving a population of cells enriched for macrophages.
BxPC3 and HPAFII (pancreas) cells were treated with MMAE, vincristine, and Paclitaxel for 24 hours. Cells were washed and harvested, and subsequently co-cultured with the enriched macrophages prepared above. Macrophages were harvested 4 days after co-culture and assayed for immune activation by flow cytometry. Level of antigen-presentation (as measured by frequency of MHCII-expressing cells) was quantified and normalized to macrophages that were co-cultured with untreated tumor cells.

[12] = system: Hep3b, Huh7, and JHH7 cells co-cultured with macrophages; assay: Cytokine and chemokine production in macrophage co-culture with treated liver tumor cells; type: cell-based; details: Huh7, JHH7 co-culture supernatant 24 hours, ELISA, normalized to untreated
Method: (§2) Liver tumor lines Hep3b, Huh7, and JHH7 cells were treated with MMAE, Tubulysin M, vincristine, and Paclitaxel for 24 hours and analyzed for ATP secretion. […] Cells were washed and harvested, and subsequently co-cultured with enriched macrophages prepared as above. Macrophages were harvested 4 days after co-culture and assayed for immune activation by flow cytometry. Levels of costimulation (as measured by CD86 expression, JHH7) and antigen-presentation (as measured by frequency of MHCII-expressing cells, Hep3b, Huh7, and JHH7) were quantified and normalized to macrophages that were co-cultured with […]. […] Supernatant from the co-culture of macrophages and dying liver tumor cells was harvested 24 hours later and assayed for levels of cytokine and chemokine production by ELISA and normalized to macrophages that were co-cultured with untreated tumor cells.

[13] = system: Hep3b, Huh7, and JHH7 cells; assay: ATP secretion from liver tumor lines; type: cell-based; details: Huh7, JHH7, 24 hours
Method: as §2

[14] = system: A2058, SK-MEL-5, SK-MEL-28, Calu-1, HT-1080, SK-MES-1 and BXPC3 cells; assay: ATP secretion in a panel of solid tumor cell lines; type: cell-based; details: 7 cell lines, supernatant after 17 hours
Method: as §1

[15] = system: T-24 (bladder) cells; assay: ATP secretion from T-24 cells; type: cell-based; details: 48 hours
Method: (§3) T-24 (bladder) cells were treated with MMAE or an MMAE-containing ADC (ASG-22ME) for 48 hours and analyzed for ATP secretion. […] T-24 cells were also treated with MMAE, an MMAE-containing ADC (ASG22ME, Enfortumab vedotin), vincristine, and Paclitaxel for 24 hours. Cells were washed and harvested, and subsequently co-cultured with the enriched macrophages as above. Macrophages were harvested 4 days after co-culture and assayed for immune activation by flow cytometry. Level of antigen-presentation (as measured by frequency of MHCII-expressing macrophages) was quantified and normalized to macrophages that were co-cultured with untreated tumor cells. […] Supernatant from the co-culture of macrophages and dying T-24 tumor cells was harvested after 24 hours and assayed for levels of cytokine and chemokine production by ELISA and normalized to macrophages that were co-cultured with untreated tumor cells.

[16] = system: MDA-MB-468 cells; assay: ATP secretion from MDA-MB-468 cells; type: cell-based; details: supernatant after 48 hours
Method: MDA-MB-468 cells were treated with MMAE or an MMAE-containing ADC (ASG-22ME). Supernatant was collected after 48 hours of treatment, and analyzed for ATP secretion.

[17] = system: T-24 tumor cells co-cultured with macrophages; assay: Cytokine and chemokine production in macrophage co-culture with treated T-24 cells; type: cell-based; details: T-24 co-culture supernatant after 24 hours, ELISA, normalized to untreated
Method: as §3

[18] = system: T-24 cells co-cultured with macrophages; assay: Macrophage antigen presentation after co-culture with treated T-24 cells; type: cell-based; details: T-24 treated 24 hours; macrophages harvested 4 days after co-culture
Method: as §3

| Molecule | ATP secretion [1] | Severe ER stress (phosphorylation of IRE1 and JNK) [2] | ER stress responses (phosphorylation of IRE1) [4] | Luciferase signal as a proxy of severe ER stress induction [5] | ATP secretion [6] | Severe ER stress in engrafted tumors (tumoral luciferase signal over time) [8] | ATP secretion [9] | Antigen-presentation (frequency of MHCII-expressing cells) [11] | further results |
| --- | --- | --- | --- | --- | --- | --- | --- | --- | --- |
| CC(=O)O[C@@]12CO[C@@H]1C[C@H](O)[C@@]1(C)C(=O)[C@H](O)C3=C(C)[C@@H](OC(=O)[C@H](O)[C@@H](NC(=O)OC(C)(C)C)c4ccccc4)C[C@@](O)([C@@H](OC(=O)c4ccccc4)[C@H]21)C3(C)C [Docetaxel, docetaxel, reference compound] | neither Paclitaxel nor Docetaxel elicited ATP secretion | do not elicit JNK phosphorylation | – | – | – | – | – | – | – |
| CC(=O)O[C@H]1C(=O)[C@@]2(C)[C@H]([C@H](OC(=O)c3ccccc3)[C@]3(O)C[C@H](OC(=O)[C@H](O)[C@@H](NC(=O)c4ccccc4)c4ccccc4)C(C)=C1C3(C)C)[C@]1(OC(C)=O)CO[C@@H]1C[C@@H]2O [Paclitaxel, paclitaxel] | neither Paclitaxel nor Docetaxel elicited ATP secretion | do not elicit JNK phosphorylation | activated ER stress responses | modest luciferase signal at the peak doses | modest ATP secretion | does not induce ER stress | equivalent levels of ATP secretion | did not lead to changes in macrophage antigen-presentation | ATP secretion (skin cell lines responding) [3]: ATP secretion from only 1 of 3 cell lines; Severe ER stress response (phosphorylation of JNK) [4]: Robust JNK phosphorylation was not seen with lower doses; HMGB1 release (cell lines responding) [7]: HMGB1 release in most of the cell lines assayed (5/7); ATP secretion [10]: modest ATP secretion |
| CC[C@H](C)[C@H](NC(=O)[C@H]1CCCCN1C)C(=O)N(C)[C@H](C[C@@H](OC(C)=O)c1nc(C(=O)N[C@@H](Cc2ccccc2)C[C@H](C)C(=O)O)cs1)C(C)C [Tubulysin M, tubulysin M, reference compound] | – | – | – | – | – | – | – | – | Cytokine and chemokine production [12]: increase of the indicated cytokines and chemokines that was more robust than treatment with Paclitaxel; ATP secretion (cell lines responding) [13]: potent ATP secretion from 3 of 3 cell lines evaluated |
| C=C1C[C@@H]2CC[C@@]34C[C@H]5O[C@H]6[C@@H](O3)[C@H]3O[C@H](CC[C@@H]3O[C@H]6[C@H]5O4)CC(=O)C[C@@H]3[C@@H](OC)[C@@H](C[C@H](O)CN)O[C@H]3C[C@H]3O[C@@H](CC[C@@H]1O2)C[C@@H](C)C3=C [eribulin, reference compound] | Increased AIR secretion | elicits severe ER stress (phosphorylation of IRE1 and JNK) | – | – | – | – | – | – | – |
| CC[C@]1(O)C[C@H]2CN(CCc3c([nH]c4ccccc34)[C@@](C(=O)OC)(c3cc4c(cc3OC)N(C=O)[C@H]3[C@@](O)(C(=O)OC)[C@H](OC(C)=O)[C@]5(CC)C=CCN6CC[C@]43[C@@H]65)C2)C1 [vincristine] | – | – | activated ER stress responses | dose-dependent increase in luciferase signal | robust ATP secretion | rapidly elicited severe ER stress | equivalent levels of ATP secretion | increase in antigen-presentation in 1/2 tumor cell lines | ATP secretion (cell lines responding) [14]: ATP secretion in most of the cell lines assayed (6/7); ATP secretion response compared with Paclitaxel [14]: more robust response than Paclitaxel in all cell lines assayed |
| ASG-22ME | – | – | – | – | – | – | – | – | ATP secretion [15]: potent ATP secretion; ATP secretion [16]: robust ATP secretion that was comparable to thapsigargin; Cytokine and chemokine production [17]: increase of the indicated cytokines and chemokines that was more robust than treatment with Paclitaxel; Macrophage antigen presentation (frequency of MHCII-expressing macrophages) [18]: increase in macrophage antigen presentation that was more robust than treatment with Paclitaxel |
